Reference: the supplement of paper PMC10307832

What was measured:
Assay in all cases: relative viability (nuclei count vs DMSO), 5 days (fraction); higher = more cells survive
Sorafenib + Linsitinib = compound: CNC(=O)c1cc(Oc2ccc(NC(=O)Nc3ccc(Cl)c(C(F)(F)F)c3)cc2)ccn1 [Sorafenib] + C[C@]1(O)C[C@@H](c2nc(-c3ccc4ccc(-c5ccccc5)nc4c3)c3c(N)nccn32)C1 [Linsitinib] (partner 1 µM)
Procedure, shortened: (§1)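 Lung cancer cell lines were pin-tool dosed in 1536-well plates on the day after seeding, with either a lone drug or a fixed anchor-drug dose plus five library-drug doses (not always all listed) in √10 steps. Nuclei were counted on 4× images after 5 days. Relative viability is the ratio of treated-well to vehicle-well nuclei counts, with each value a median of duplicate plates.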

Sorafenib + Pemetrexed = compound: CNC(=O)c1cc(Oc2ccc(NC(=O)Nc3ccc(Cl)c(C(F)(F)F)c3)cc2)ccn1 [Sorafenib] + Nc1nc2[nH]cc(CCc3ccc(C(=O)N[C@@H](CCC(=O)O)C(=O)O)cc3)c2c(=O)[nH]1 [Pemetrexed] (partner 0.2 µM)
Procedure, shortened: as §1

Sorafenib + Crizotinib = compound: CNC(=O)c1cc(Oc2ccc(NC(=O)Nc3ccc(Cl)c(C(F)(F)F)c3)cc2)ccn1 [Sorafenib] + C[C@@H](Oc1cc(-c2cnn(C3CCNCC3)c2)cnc1N)c1c(Cl)ccc(F)c1Cl [Crizotinib] (partner 1 µM)
Procedure, shortened: as §1

Sorafenib + Palbociclib = compound: CNC(=O)c1cc(Oc2ccc(NC(=O)Nc3ccc(Cl)c(C(F)(F)F)c3)cc2)ccn1 [Sorafenib] + CC(=O)c1c(C)c2cnc(Nc3ccc(N4CCNCC4)cn3)nc2n(C2CCCC2)c1=O [Palbociclib] (partner 0.5 µM)
Procedure, shortened: as §1

Sorafenib + AZD7762 = compound: CNC(=O)c1cc(Oc2ccc(NC(=O)Nc3ccc(Cl)c(C(F)(F)F)c3)cc2)ccn1 [Sorafenib] + NC(=O)Nc1cc(-c2cccc(F)c2)sc1C(=O)N[C@H]1CCCNC1 [AZD7762] (partner 0.2 µM)
Procedure, shortened: as §1

Cell Line	relative viability (Sorafenib + Linsitinib; first compound 0.08 µM)	relative viability (Sorafenib + Linsitinib; first compound 0.253 µM)	relative viability (Sorafenib + Linsitinib; first compound 2.53 µM)	relative viability (Sorafenib + Linsitinib; first compound 8 µM)	relative viability (Sorafenib + Pemetrexed; first compound 0.08 µM)	relative viability (Sorafenib + Pemetrexed; first compound 0.253 µM)	relative viability (Sorafenib + Pemetrexed; first compound 2.53 µM)	relative viability (Sorafenib + Pemetrexed; first compound 8 µM)	relative viability (Sorafenib + Crizotinib; first compound 0.08 µM)	relative viability (Sorafenib + Crizotinib; first compound 2.53 µM)	relative viability (Sorafenib + Crizotinib; first compound 8 µM)	relative viability (Sorafenib + Palbociclib; first compound 0.08 µM)	relative viability (Sorafenib + Palbociclib; first compound 0.253 µM)	relative viability (Sorafenib + Palbociclib; first compound 2.53 µM)	relative viability (Sorafenib + Palbociclib; first compound 8 µM)	relative viability (Sorafenib + AZD7762; first compound 0.08 µM)	relative viability (Sorafenib + AZD7762; first compound 0.253 µM)	relative viability (Sorafenib + AZD7762; first compound 2.53 µM)	relative viability (Sorafenib + AZD7762; first compound 8 µM)	relative viability (Sorafenib + Crizotinib; first compound 0.253 µM)
LK-2	0.672	0.364	0.451	0.516	0.331	0.254	0.303	0.194	0.208	0.263	0.256	0.703	0.588	0.528	0.542	0.394	0.338	0.413	0.134	–
LOU-NH91	1.07	0.973	1.13	0.873	0.419	0.37	0.436	–	0.841	0.844	0.654	0.533	0.52	0.55	0.533	0.804	0.721	0.876	0.671	0.751
LU99A	0.533	0.488	0.507	0.496	0.195	0.166	0.193	0.138	0.541	0.6	0.543	0.431	0.445	0.39	0.393	0.369	0.307	0.321	0.155	0.547
LXF-289	0.977	0.986	1.04	0.894	0.886	0.782	0.932	0.787	0.816	0.824	0.757	0.612	0.618	0.74	0.616	1.12	1.11	1.17	1.05	0.814
